# System: human primary T-cells, IL-2 stimulated proliferation (JAK-1 and JAK-3 dependent; reported as JAK3 activity)
# Experiment: Human primary T-cell proliferation stimulated by IL-2 (Example 3)
# Assay type: cell-based
# Conditions: tested under conditions described in Example 3 (IL-2 stimulated human primary T-cell proliferation); read-out: ability to inhibit JAK3 activity, IC50 range (Table V)
# Procedure, shortened: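 Peripheral-blood human T-cells pre-activated via TCR/CD28, IL-2-starved overnight, then cultured 72 h at 37 °C with compound in Yssel's medium containing IL-2 (80 U/mL in cell suspension). Proliferation read as viable-cell ATP by CellTiter-Glo luminescence; reduction versus control taken as JAK pathway inhibition.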
row,SMILES,IC50 [nM]
1,"Cc1cnc(Nc2ccc(N3CCN(C)CC3)c(F)c2)nc1Nc1ccc2oc(=O)[nH]c2c1 [Compound I-281, N2-[3-fluoro-4-(4-methylpiperazino)]phenyl-5-methyl-N4-(2-oxo-2,3-dihydro-1,3-benzoxazol-5-yl)-2,4-pyrimidinediamine]",< 500
2,"Cc1cnc(Nc2cc(F)c(N3CCN(C)CC3)c(F)c2)nc1Nc1ccc2oc(=O)[nH]c2c1 [Compound I-282, N2-[3,5-difluoro-4-(4-methylpiperazino)]phenyl-5-methyl-N4-(2-oxo-2,3-dihydro-1,3-benzoxazol-5-yl)-2,4-pyrimidinediamine]",< 500
3,"CCN1CCN(c2cc(Nc3ncc(C)c(Nc4ccc5oc(=O)[nH]c5c4)n3)ccc2Cl)CC1 [Compound I-283, N2-[4-chloro-3-(4-ethylpiperazino)]phenyl-5-methyl-N4-(2-oxo-2,3-dihydro-1,3-benzoxazol-5-yl)-2,4-pyrimidinediamine]",< 500
4,"Cc1cnc(Nc2ccc(Cl)c(N3CC(C)N(C)C(C)C3)c2)nc1Nc1ccc2oc(=O)[nH]c2c1 (stereo not shown) [Compound I-284, N2-[4-chloro-3-(3,4,5-trimethylpiperazino)]phenyl-5-methyl-N4-(2-oxo-2,3-dihydro-1,3-benzoxazol-5-yl)-2,4-pyrimidinediamine]",< 500
5,"CCCN1CCN(c2cc(Nc3ncc(C)c(Nc4ccc5oc(=O)[nH]c5c4)n3)ccc2C(F)(F)F)CC1 [Compound I-285, 5-methyl-N4-(2-oxo-2,3-dihydro-1,3-benzoxazol-5-yl)-N2-[3-(4-propylpiperazino)-4-trifluoromethyl]phenyl-2,4-pyrimidinediamine]",< 500
6,"Cc1cnc(Nc2cccc(-c3cnco3)c2)nc1Nc1ccc2oc(=O)[nH]c2c1 [Compound I-286, 5-methyl-N2-[3-(1,3-oxazol-5-yl)]phenyl-N4-(2-oxo-2,3-dihydro-1,3-benzoxazol-5-yl)-2,4-pyrimidinediamine]",< 500
7,"Cc1cnc(Nc2ccc(Br)cc2)nc1Nc1ccc2oc(=O)[nH]c2c1 [Compound I-288, N2-(4-bromo)phenyl-5-methyl-N4-(2-oxo-2,3-dihydro-1,3-benzoxazol-5-yl)-2,4-pyrimidinediamine]",< 500
8,"Cc1cnc(Nc2cccc(-c3ccncc3)c2)nc1Nc1ccc2oc(=O)[nH]c2c1 [Compound I-289, 5-methyl-N4-(2-oxo-2,3-dihydro-1,3-benzoxazol-5-yl)-N2-[3-(pyridin-4-yl)]phenyl-2,4-pyrimidinediamine]",< 500
9,"Cc1cnc(Nc2cccc(-c3cccnc3)c2)nc1Nc1ccc2oc(=O)[nH]c2c1 [Compound I-290, 5-methyl-N4-(2-oxo-2,3-dihydro-1,3-benzoxazol-5-yl)-N2-[3-(pyridin-3-yl)]phenyl-2,4-pyrimidinediamine]",< 500
10,"Cc1cnc(Nc2ccc(-c3cccnc3)cc2)nc1Nc1ccc2oc(=O)[nH]c2c1 [Compound I-291, 5-methyl-N4-(2-oxo-2,3-dihydro-1,3-benzoxazol-5-yl)-N2-[4-(pyridin-3-yl)]phenyl-2,4-pyrimidinediamine]",< 500
11,"COCCOc1cc(Nc2ncc(C)c(Nc3ccc4oc(=O)[nH]c4c3)n2)ccc1OC [Compound I-292, N2-[4-methoxy-3-(2-methoxyethoxy)]phenyl-5-methyl-N4-(2-oxo-2,3-dihydro-1,3-benzoxazol-5-yl)-2,4-pyrimidinediamine]",< 500
12,"COc1ccc(Nc2ncc(C)c(Nc3ccc4oc(=O)[nH]c4c3)n2)cc1OCC(=O)NC1CC1 [Compound I-293, N2-[3-(cyclopropylaminocarbonylmethoxy)-4-methoxy]phenyl-5-methyl-N4-(2-oxo-2,3-dihydro-1,3-benzoxazol-5-yl)-2,4-pyrimidinediamine]",< 500
13,"Cc1cnc(Nc2ccc(F)c(C#N)c2)nc1Nc1ccc2oc(=O)[nH]c2c1 [Compound I-294, N2-(3-cyano-4-fluoro)phenyl-5-methyl-N4-(2-oxo-2,3-dihydro-1,3-benzoxazol-5-yl)-2,4-pyrimidinediamine]",< 500

# Reference: patent US10005767B2, “Compositions and methods for inhibition of the JAK pathway” (Rigel Pharmaceuticals, Inc., priority 2009, dated 2018)
